What was measured:
[1] = target: T1, CD36 (Mus musculus, UniProt Q08857); test: BRET-based CD36 internalization assay; type: cell-based; conditions: 30 min pretreatment: PP1 3 μg/mL, cytochalasin D 2 μg/mL, piceatannol 40 μM, 2-bromopalmitate 100 μM, SSO 100 μM, BI-0115 5 μM; then ligand 15 min
T1 construct: CD36 ORF was amplified from pCMV3-mCD36-GFPSpark; expressed in transfected cells; host or cells: J774A.1 murine macrophages, transiently co-transfected with mCD36-RlucII and rGFP-CAAX
Description: For the construction of mouse CD36-RlucII, CD36 ORF was amplified from pCMV3-mCD36-GFPSpark using the 5′-primer NheI-CD36-Forward: […] and 3′-primer HindIII-CD36-Reverse: […] primers to introduce NheI and HindIII digestion sites sequences. The final product was subcloned in-frame into NheI/HindIII of pcDNA3.1/hygromycin (+) plasmid containing the RlucII [19]. The rGFP-CAAX plasmid, constructed as previously described, was kindly provided by Dr. Stephane Laporte.
For the BRET assay, J774A.1 cells were seeded in a 96-well plate (white, flat bottom) at a density of 35,000 cells/well in DMEM supplemented with 10% FBS and 1% penicillin/streptomycin. Cells were grown at 37 °C in 5% CO2 and 90% humidity. The next day, the culture medium was changed to DMEM 10% FBS and 0.2% penicillin/streptomycin, supplemented with 5-azacytidine (1 μM) for 2 h. Cells were transiently transfected using a mixed solution containing mCD36-RlucII plasmid (25.6 ng), rGFP-CAAX plasmid (31.7 ng), and pcDNA3.1(+) for a total of 80 ng cDNA/well. TransIT-X2® reagent was used at a cDNA-to-reagent ratio of 1 μg to 4 μL. Twenty-four hours later, cells were starved for 2 h in Tyrode’s buffer (140 mM NaCl, 2.7 mM KCl, 1 mM CaCl2, 12 mM NaHCO3, 5.6 mM D-glucose, 0.5 mM MgCl2, 0.37 mM NaH2PO4, and 25 mM HEPES, pH 7.4) supplemented with 0.01% BSA. Luminescence was induced with Prolume Purple (1.5 μM final) for 2 min in Tyrode’s buffer. Luminescence signal was measured using a Tecan Spark Multimode microplate reader (Tecan Trading AG, Männedorf, Switzerlnd) in the BRET2 mode with filter sets of 420/70 nm and 515/30 nm for detecting RlucII and rGFP signals, respectively. The BRET ratio was determined as follows: [(intensity emitted by the rGFP/intensity emitted by the Rluc2) − (intensity emitted by the rGFP/intensity emitted by the Rluc2 for the CD36-RLuc2 control cells)].
For kinetic study, transiently co-transfected J774A.1 cells were incubated at different times with MPE-298 (100 nM) or oxLDL (25 μg/mL). In experimental protocols involving pharmacological inhibitors, cells transiently co-transfected were pretreated with PP1 (3 μg/mL), cytochalasin D (2 μg/mL), piceatannol (40 μM), 2-bromopalmitate (100 μM), SSO (100 μM), and BI-0115 (5 μM) for 30 min. CD36 internalization was then induced with MPE-298 and oxLDL for 15 min. For the BRET saturation studies, the cells were transiently transfected with a fixed concentration of mCD36-RlucII plasmid (25.6 ng) and increasing concentrations of rGFP-CAAX plasmid ranging from 0 to 77 ng for 24 h.

[2] = test system: CCL2; test: CCL2 secretion, ELISA; type: cell-based, mouse; conditions: RAW264.7, SSO 100 μM, Figure 4G
Experimental: RAW264.7 cells were seeded at a density of 150,000/well in 48-well plates. The next day, the cells were weaned for 4 h in DMEM supplemented with 0.2% BSA, exposed to MPE-298 or oxLDL or the combination of MPE-298 and oxLDL, and incubated at 37 °C in 5% CO2 for 16 h. After the incubation period, media were collected and assessed for CCL2 chemokine using a mouse ELISA detection kit (Invitrogen-Life Technologies, Carlsbad, CA, USA) following the manufacturer’s instructions. For experiments using inhibitors, the cells were pre-exposed to SSO for 30 min prior to stimulation with MPE-298 or oxLDL.

[3] = test system: RAW264.7 cells; test: mtROS production (MitoSOX Red) in RAW264.7 cells; type: cell-based, murine; conditions: for effect of inhibitor on oxLDL-elicited mtROS production: 30 min pre-exposure, oxLDL 25 μg/mL 4 h, Figures S4C, 5F; for effect of inhibitor on MPE-298's inhibition of oxLDL-elicited mtROS production: SSO 100 μM, PP1 3 μg/mL, cytochalasin D 2 μg/mL, 2-BP 100 μM, BI-0115 5 μM, Figure 5A,B,F
Experimental: RAW264.7 cells (17,000 cells/well) or M1 BMDM (60,000 cells/well) in complete medium (RPMI 1640 supplemented with 10% FBS and 1% penicillin/streptomycin), were seeded in 96-well tissue culture plates and incubated overnight at 37 °C in 5% CO2. On the day of experimentation, cells were starved in RPMI medium supplemented with 1% penicillin/streptomycin and 0.2% BSA for 1 h. Cells were first pretreated with MPE-298 for 1 h and stimulated or not with oxLDL for 4 h. In other experiments, cells were preincubated with inhibitors as indicated in the figure legends prior to MPE-298 incubation and oxLDL stimulation. After the stimulation period, cells were washed with Hanks’ balanced salt solution (HBSS, Wisent Inc.) and incubated with a mixture of MitoSOX Red (5 μM), a mitochondrial superoxide indicator, and Hoechst-33342 (4 μM), a nuclear staining dye, for 20 min at 37 °C. The fluorescence intensities were analyzed using a Synergy2 (BioTek) microplate reader with the following filter sets: excitation/emission at 510/580 nm for MitoSox and 350/461 nm for Hoechst-33342. Fluorescence intensity of MitoSox was normalized by fluorescence intensity of Hoescht-33342.

[4] = test system: RAW264.7 cells; test: Mitochondrial membrane potential (JC-1) in RAW264.7 cells; type: cell-based, murine; conditions: for effect of inhibitor on oxLDL-elicited mitochondrial membrane depolarization: Figures S4D, 5G; for effect of inhibitor on MPE-298's reversal of oxLDL-elicited mitochondrial membrane depolarization: SSO 100 μM, PP1 3 μg/mL, 2-BP 100 μM, BI-0115 5 μM, Figure 5D,G
Experimental: For the measurement of the mitochondrial membrane potential (ΔΨM), treated cells were incubated in HBSS with 5,5′,6,6′-tetrachloro-1,1′,3,3′-tetraethylbenzimidazolylcarbocyanine iodide (JC-1, 5 μM), a membrane-permeable cationic dye (Invitrogen-Life Technologies, Carlsbad, CA, USA). After 20 min, cells were extensively washed with HBSS. Fluorescence from aggregated JC-1 was measured with an excitation wavelength of 550 nm and emission wavelength of 600 nm, and fluorescence from JC-1 monomer was detected with an excitation wavelength of 485 nm and emission wavelength of 535 nm. The ΔΨM was determined from the ratio of intensities at 600 nm and 535 nm.

[5] = test system: JNK (Thr183/Tyr185); test: Western blot of JNK phosphorylation in RAW264.7 cells; type: cell-based, murine; conditions: preincubation before oxLDL, BI-0115 5 μM, SSO 100 μM, Figures 7A, S5
Experimental: (§1) Murine RAW264.7 cells or M1 BMDMs were seeded in 6-well plates. The next day, cells were starved for 4 h and treated with MPE-298 (100 nM) or oxLDL (25 μg/mL) for the indicated times. Cells were washed with cold PBS, then lysed for 30 min in ice-cold radioimmunoprecipitation assay buffer (RIPA) (150 mM NaCl, 50 mM Tris-HCl, 1% Triton X-100, 0.2% SDS, 50 mM NaF, and 2 mM EDTA, pH 7.4) containing protease and phosphatase inhibitors (Pierce Biotechnology, Waltham, MA, USA). Cell lysates were centrifuged at 15,000× g for 20 min at 4 °C.
(§2) The protein concentration of supernatants was determined by a bicinchoninic acid (BCA) assay (Pierce Biotechnology, Waltham, MA, USA). Equal amounts of protein extracts were separated on 4–12% SDS–polyacrylamide gels and transferred to polyvinylidene difluoride (PVDF) membranes (Bio-Rad Laboratories, Hercules, CA, USA) for immunoblotting. Membranes were blotted with primary antibodies p47phox and Rac1/2/3 for phosphorylated Syk (Tyr348), as well as SRC family kinases (Tyr416), Lyn (Tyr397), JNK (Thr183/Tyr185), and p66Shc (Ser36). […] Immunoblotted bands were detected by enhanced chemiluminescence with West Femto chemiluminescent substrate (Thermo Scientific, Waltham, MA, USA) using a ChemiDoc MP Imaging System (Bio-Rad Laboratories, Hercules, CA, USA). […]

[6] = test system: p66Shc (Ser36); test: Western blot of p66Shc phosphorylation in RAW264.7 cells; type: cell-based, murine; conditions: preincubation before oxLDL, BI-0115 5 μM, SSO 100 μM, Figures 7A, S5
Experimental: as §1, §2

[7] = test system: RAW264.7 cells; test: ATTO-465-MPE-298 internalization in RAW264.7 cells; type: cell-based, murine; conditions: 30 min pretreatment with PP1 3 μg/mL, PP2 3 μg/mL or cytochalasin D 2 μg/mL, ATTO-465-MPE-298 500 nM 15 min, acid wash, n = 3 in triplicate
Experimental: RAW 264.7 cells (ATCC) were seeded at 125,000 cells per well in a 96-well plate and allowed to adhere overnight in Roswell Park Memorial Institute Medium (RPMI, Wisent Inc, Saint-Jean-Baptiste, QC, Canada) supplemented with 10% FBS and 1% penicillin/streptomycin at 37 °C in 5% CO2. The cells were weaned off FBS for 2 h in RPMI-25mM Hepes, supplemented with 1% penicillin/streptomycin and 0.2% BSA. The kinetics of ligand internalization (incubation at 37 °C) and plasma membrane bound (incubation at 4 °C) were initiated by adding ATTO-465-MPE-298 at different time points. After incubation, the cells were washed 3 times with cold PBS to determine the total fluorescence and the cell surface bounds or with sodium acetate pH 4 buffer at 4 °C to assess the internalized fraction, followed by lysis in 0.5N NaOH/0.05% sodium dodecyl sulfate (SDS). For the characterization of the endocytosis pathways elicited by MPE-298, cells were pretreated with specific inhibitors 30 min before adding the fluorescent peptide as the tracer. Briefly, after being weaned off FBS, the cells were preincubated at 37 °C in 5% CO2 with cytochalasin D (2 μg/mL), as an inhibitor of actin polymerization, and with PP1 (3 μg/mL) and PP2 (3 μg/mL), as inhibitors of Src kinases. After 30 min of incubation, ATTO-465-MPE-298 was added for an additional 15 min. The fluorescence was analyzed with excitation/emission wavelengths at 510/580 nm using a BioTek Synergy2 (Agilent, Santa Clara, CA, USA)microplate reader.

Row | SMILES | effect of inhibitor pretreatment on MPE-298- and oxLDL-induced loss of BRET signal [1] | effect of preincubation on oxLDL-induced CCL2 secretion ([2]; 30 min preincubation) | effect of pre-exposure on MPE-298's effects on oxLDL-triggered CCL2 release [2] | effect of inhibitor on oxLDL-elicited mtROS production [3] | effect of inhibitor on MPE-298's inhibition of oxLDL-elicited mtROS production [3] | effect of inhibitor on oxLDL-elicited mitochondrial membrane depolarization [4] | effect of inhibitor on MPE-298's reversal of oxLDL-elicited mitochondrial membrane depolarization [4] | effect on oxLDL-induced JNK phosphorylation [5] | effect on oxLDL-induced p66Shc phosphorylation [6] | decrease of uptake of fluorescently labeled MPE-298 [7]
1 | CCCCCCCC/C=C\CCCCCCCC(=O)ON1C(=O)CC(S(=O)(=O)O)C1=O (centres unmarked) [SSO, sulfosuccinimidyl oleate] | completely abolished | unaltered | completely abolished | neither SSO nor PP1 and 2-BP altered | blocked the protective effect | prevented | did not block | did not prevent | did not prevent | –
2 | CC(C)(C)n1nc(-c2ccc(Cl)cc2)c2c(N)ncnc21 [PP2] | – | – | – | – | – | – | – | – | – | 41%
3 | Oc1cc(O)cc(/C=C/c2ccc(O)c(O)c2)c1 [piceatannol] | completely abolished | – | – | – | – | – | – | – | – | –
4 | CCCCCCCCCCCCCCC(Br)C(=O)O (centres unmarked) [2-BP, 2-bromohexadecanoic acid] | abolish | – | – | neither SSO nor PP1 and 2-BP altered | blocked | prevented | did not block | – | – | –
5 | Cc1ccc(-c2nn(C(C)(C)C)c3ncnc(N)c23)cc1 [PP1] | completely abolished | – | – | neither SSO nor PP1 and 2-BP altered | blocked the protective effect | prevented | did not block | – | – | 45%
6 | C=C1[C@@H](C)[C@H]2[C@H](Cc3ccccc3)NC(=O)[C@]23[C@H](OC(C)=O)/C=C/[C@@](C)(O)C(=O)[C@@H](C)C/C=C/[C@H]3[C@@H]1O [cytochalasin D] | completely abolished | – | – | – | blocked the protective effect | prevented | – | – | – | 53%

Source: paper PMC11898605, “Selective Azapeptide CD36 Ligand MPE-298 Regulates oxLDL-LOX-1-Mediated Inflammation and Mitochondrial Oxidative Stress in Macrophages” (Cells, 2025)
